Test results reported in the NIST ThermoML archive (doi:10.1007/s10765-009-0602-6).

Assay: molar heat capacity at constant volume; xn = mol fraction of the nth substance listed
Settings: x1 = 0.2607

N [ammonia] + O
Settings	molar heat capacity at constant volume [J/K/mol]
600.42 K, Fluid (supercritical or subcritical phases), Mass density=309.95 kg/m3, isochoric heat capacity	99.2
600.43 K, Fluid (supercritical or subcritical phases), Mass density=301.94 kg/m3, isochoric heat capacity	108.54
600.45 K, Fluid (supercritical or subcritical phases), Mass density=308.35 kg/m3, isochoric heat capacity	94.94
600.48 K, Fluid (supercritical or subcritical phases), Mass density=299.79 kg/m3, isochoric heat capacity	116.67
600.48 K, Liquid, Isochoric heat capacity	116.67
600.5 K, Fluid (supercritical or subcritical phases), Mass density=299.79 kg/m3, isochoric heat capacity	112.59
600.5 K, Fluid (supercritical or subcritical phases), Mass density=303.47 kg/m3, isochoric heat capacity	94.55
600.51 K, Fluid (supercritical or subcritical phases), Mass density=301.94 kg/m3, isochoric heat capacity	105.98
600.51 K, Fluid (supercritical or subcritical phases), Mass density=309.95 kg/m3, isochoric heat capacity	100.78
600.59 K, Fluid (supercritical or subcritical phases), Mass density=299.79 kg/m3, isochoric heat capacity	104.74
600.59 K, Fluid (supercritical or subcritical phases), Mass density=301.94 kg/m3, isochoric heat capacity	99.68
600.59 K, Fluid (supercritical or subcritical phases), Mass density=303.47 kg/m3, isochoric heat capacity	94.4
600.59 K, Fluid (supercritical or subcritical phases), Mass density=309.95 kg/m3, isochoric heat capacity	100.97
600.62 K, Fluid (supercritical or subcritical phases), Mass density=308.35 kg/m3, isochoric heat capacity	91.03
600.63 K, Fluid (supercritical or subcritical phases), Mass density=297.6 kg/m3, isochoric heat capacity	114.9
600.63 K, Liquid, Isochoric heat capacity	114.9
600.66 K, Fluid (supercritical or subcritical phases), Mass density=303.47 kg/m3, isochoric heat capacity	95.13
600.67 K, Fluid (supercritical or subcritical phases), Mass density=299.79 kg/m3, isochoric heat capacity	101.47
600.69 K, Fluid (supercritical or subcritical phases), Mass density=309.95 kg/m3, isochoric heat capacity	95.49
600.72 K, Fluid (supercritical or subcritical phases), Mass density=297.6 kg/m3, isochoric heat capacity	112.64
600.77 K, Fluid (supercritical or subcritical phases), Mass density=297.6 kg/m3, isochoric heat capacity	109.73
600.77 K, Fluid (supercritical or subcritical phases), Mass density=299.79 kg/m3, isochoric heat capacity	98.67
600.77 K, Fluid (supercritical or subcritical phases), Mass density=305.44 kg/m3, isochoric heat capacity	101.79
600.8 K, Fluid (supercritical or subcritical phases), Mass density=308.35 kg/m3, isochoric heat capacity	92.66
600.81 K, Fluid (supercritical or subcritical phases), Mass density=294.44 kg/m3, isochoric heat capacity	113.83
600.81 K, Liquid, Isochoric heat capacity	113.83
600.85 K, Fluid (supercritical or subcritical phases), Mass density=294.44 kg/m3, isochoric heat capacity	111.38
600.85 K, Fluid (supercritical or subcritical phases), Mass density=297.6 kg/m3, isochoric heat capacity	105.54
600.85 K, Fluid (supercritical or subcritical phases), Mass density=305.44 kg/m3, isochoric heat capacity	96.13
600.86 K, Fluid (supercritical or subcritical phases), Mass density=299.79 kg/m3, isochoric heat capacity	99.55
600.9 K, Fluid (supercritical or subcritical phases), Mass density=342.18 kg/m3, isochoric heat capacity	88.83
600.93 K, Fluid (supercritical or subcritical phases), Mass density=292.97 kg/m3, isochoric heat capacity	112.06
600.93 K, Liquid, Isochoric heat capacity	112.06
600.94 K, Fluid (supercritical or subcritical phases), Mass density=292.97 kg/m3, isochoric heat capacity	106.05
600.94 K, Fluid (supercritical or subcritical phases), Mass density=294.44 kg/m3, isochoric heat capacity	103.91
600.94 K, Fluid (supercritical or subcritical phases), Mass density=297.6 kg/m3, isochoric heat capacity	103.82
600.94 K, Fluid (supercritical or subcritical phases), Mass density=305.44 kg/m3, isochoric heat capacity	99.89
600.94 K, Fluid (supercritical or subcritical phases), Mass density=320.33 kg/m3, isochoric heat capacity	94.88
600.98 K, Fluid (supercritical or subcritical phases), Mass density=308.35 kg/m3, isochoric heat capacity	89.18
601.02 K, Fluid (supercritical or subcritical phases), Mass density=305.44 kg/m3, isochoric heat capacity	99.43
601.02 K, Fluid (supercritical or subcritical phases), Mass density=320.33 kg/m3, isochoric heat capacity	95.95
601.02 K, Fluid (supercritical or subcritical phases), Mass density=342.18 kg/m3, isochoric heat capacity	87.43
601.04 K, Fluid (supercritical or subcritical phases), Mass density=292.97 kg/m3, isochoric heat capacity	101.74
601.05 K, Fluid (supercritical or subcritical phases), Mass density=291.16 kg/m3, isochoric heat capacity	111.35
601.05 K, Liquid, Isochoric heat capacity	111.35
601.08 K, Fluid (supercritical or subcritical phases), Mass density=291.16 kg/m3, isochoric heat capacity	105.11
601.11 K, Fluid (supercritical or subcritical phases), Mass density=292.97 kg/m3, isochoric heat capacity	94.42
601.11 K, Fluid (supercritical or subcritical phases), Mass density=301.94 kg/m3, isochoric heat capacity	97.37
601.11 K, Fluid (supercritical or subcritical phases), Mass density=305.44 kg/m3, isochoric heat capacity	95.1
601.11 K, Fluid (supercritical or subcritical phases), Mass density=320.33 kg/m3, isochoric heat capacity	90.05
601.12 K, Fluid (supercritical or subcritical phases), Mass density=291.16 kg/m3, isochoric heat capacity	93.41
601.16 K, Fluid (supercritical or subcritical phases), Mass density=188.05 kg/m3, isochoric heat capacity	106.16
601.16 K, Liquid, Isochoric heat capacity	102.61
601.19 K, Fluid (supercritical or subcritical phases), Mass density=301.94 kg/m3, isochoric heat capacity	94.4
601.19 K, Fluid (supercritical or subcritical phases), Mass density=305.44 kg/m3, isochoric heat capacity	94.51
601.19 K, Fluid (supercritical or subcritical phases), Mass density=320.33 kg/m3, isochoric heat capacity	88.79
601.2 K, Fluid (supercritical or subcritical phases), Mass density=188.05 kg/m3, isochoric heat capacity	93.94
601.21 K, Fluid (supercritical or subcritical phases), Mass density=291.16 kg/m3, isochoric heat capacity	94.65
601.21 K, Fluid (supercritical or subcritical phases), Mass density=292.97 kg/m3, isochoric heat capacity	99.73
601.24 K, Fluid (supercritical or subcritical phases), Mass density=342.18 kg/m3, isochoric heat capacity	88.83
601.28 K, Fluid (supercritical or subcritical phases), Mass density=320.33 kg/m3, isochoric heat capacity	91.03
601.29 K, Fluid (supercritical or subcritical phases), Mass density=301.94 kg/m3, isochoric heat capacity	98.17
601.3 K, Fluid (supercritical or subcritical phases), Mass density=188.05 kg/m3, isochoric heat capacity	86.48
601.34 K, Fluid (supercritical or subcritical phases), Mass density=285.71 kg/m3, isochoric heat capacity	107.97
601.34 K, Fluid (supercritical or subcritical phases), Mass density=301.94 kg/m3, isochoric heat capacity	95.7
601.34 K, Liquid, Isochoric heat capacity	107.97
601.37 K, Fluid (supercritical or subcritical phases), Mass density=285.71 kg/m3, isochoric heat capacity	99.59
601.37 K, Fluid (supercritical or subcritical phases), Mass density=294.44 kg/m3, isochoric heat capacity	105.52
601.37 K, Fluid (supercritical or subcritical phases), Mass density=297.6 kg/m3, isochoric heat capacity	102.84
601.37 K, Fluid (supercritical or subcritical phases), Mass density=342.18 kg/m3, isochoric heat capacity	89.33
601.38 K, Fluid (supercritical or subcritical phases), Mass density=188.05 kg/m3, isochoric heat capacity	66.72
601.39 K, Fluid (supercritical or subcritical phases), Mass density=291.16 kg/m3, isochoric heat capacity	92.22
601.45 K, Fluid (supercritical or subcritical phases), Mass density=285.71 kg/m3, isochoric heat capacity	94.44
601.45 K, Fluid (supercritical or subcritical phases), Mass density=294.44 kg/m3, isochoric heat capacity	102.41
601.45 K, Fluid (supercritical or subcritical phases), Mass density=297.6 kg/m3, isochoric heat capacity	99.66
601.45 K, Fluid (supercritical or subcritical phases), Mass density=301.94 kg/m3, isochoric heat capacity	92.5
601.46 K, Fluid (supercritical or subcritical phases), Mass density=299.79 kg/m3, isochoric heat capacity	97
601.47 K, Fluid (supercritical or subcritical phases), Mass density=320.33 kg/m3, isochoric heat capacity	92.7
601.5 K, Fluid (supercritical or subcritical phases), Mass density=188.05 kg/m3, isochoric heat capacity	72.1
601.53 K, Fluid (supercritical or subcritical phases), Mass density=299.79 kg/m3, isochoric heat capacity	99
601.54 K, Fluid (supercritical or subcritical phases), Mass density=285.71 kg/m3, isochoric heat capacity	89.22
601.54 K, Fluid (supercritical or subcritical phases), Mass density=297.6 kg/m3, isochoric heat capacity	101.22
